Test results as given in patent publication US8785488B2 (Exelixis Patent Company LLC, priority 2009, dated 2014).

Legend:
[1] = biological target: T1, h-TGR5 (Homo sapiens, UniProt Q8TDU6); test: TGR5 cAMP Assay using Cisbio cAMP Dynamic2 htrf kit (hTGR5CRE-luc HEK 293 cells); assay type: cell-based; conditions: h-TGR5 cAMP EC50, Table 1; read-out: cAMP (EC50)
T1 construct: expressed in transfected cells
T1 sequence (Q8TDU6 1-330): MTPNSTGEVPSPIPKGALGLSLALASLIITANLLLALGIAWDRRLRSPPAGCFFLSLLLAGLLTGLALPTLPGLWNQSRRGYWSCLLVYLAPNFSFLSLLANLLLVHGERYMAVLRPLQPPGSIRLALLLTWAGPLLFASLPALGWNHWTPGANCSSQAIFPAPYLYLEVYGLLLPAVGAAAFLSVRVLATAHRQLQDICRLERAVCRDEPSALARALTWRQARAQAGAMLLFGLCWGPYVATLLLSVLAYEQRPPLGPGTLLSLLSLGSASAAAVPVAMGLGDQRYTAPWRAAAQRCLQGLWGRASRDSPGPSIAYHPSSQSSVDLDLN
Experimental: Compounds were diluted in DPBS with 5% DMSO (8-point serial dilution by half logs) in a 96-well plate and 1 μL was transferred to a 384-well assay plate in quadruplicate. The d2-cAMP and anti-cAMP Ab-cryptate stock solution were prepared as per the instructions in the Cisbio™ (Bedford, Mass.) kit. […] Cells were adjusted to 0.44×10^6 cells/ml followed by addition of IBMX to a final concentration of 0.5 mM. The cells were then mixed with d2-cAMP solution (7.1 mL cells+100 ul d2-cAMP) and 4000 cells (9 μL) were transferred to each well of the 384-well assay plate. Cells without d2-cAMP were added to eight wells as a negative control. The plate was covered and incubated at room temp for 30 min. Then 10 μL of Ab-cryptate solution was added to each well of the assay plate and incubated for 1 hr. The plate was read on an EnVision™ plate reader (Perkin-Elmer, Waltham, Mass.) and the DeltaF value was calculated as per the instructions in the Cisbio™ kit.
In the following tables, EC50 values determined according to the TGR5 cAMP Assay described herein (cAMP); EC50 values determined according to the TGR5/CRE-Luciferiase Assay described herein (CRE-Luc). […] The following compounds in Tables 1 and 2 were made by using procedures described in the above Schemes and Examples, and, where applicable, by making any necessary substitutions of known materials that one skilled in the art would ordinarily understand how to do.

[2] = biological target: T2, human TGR5 (h-TGR5) (Homo sapiens, UniProt Q8TDU6); test: TGR5/CRE-Luciferiase Assay (HEK 293 hTGR5/CRE-Luc cells); assay type: cell-based; conditions: h-TGR5 CRE-Luc EC50, Table 1; read-out: CRE-Luc (EC50)
T2 construct: expressed in transfected cells
T2 sequence (Q8TDU6 1-330): T1 sequence (Q8TDU6 1-330)
Summary of the method: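 HEK293 cells stably carrying hTGR5 and a CRE-luciferase reporter were exposed to serially diluted compounds (diluted in DMEM with 5% DMSO) for 6 h. Cells were then lysed in luciferase buffer, luminescence was read, and EC50 values were derived from dose-response curves.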

| EC50 [1] | EC50 [2] | Compound |
| --- | --- | --- |
| < 100 nM | < 100 nM | COc1cc(C(C)(C)c2cnc(SCc3c(F)cc(OCC/C=N/NC(=N)N)cc3Cl)n2-c2ccc(F)cc2)ccc1Cl [(2E)-2-(3-{[3-chloro-4-({[5-{1-[4-chloro-3-(methyloxy)phenyl]-1-methylethyl}-1-(4-fluorophenyl)-1H-imidazol-2-yl]thio}methyl)-5-fluorophenyl]oxy}propylidene) hydrazinecarboximidamide] |
| 100 to 1000 nM | 100 to 1000 nM | CC(C)(c1ccc(Cl)c(Cl)c1)c1cnc(SCc2cc(-c3nnn[nH]3)ccc2Cl)n1-c1ccc(F)cc1 [5-{4-chloro-3-[({5-[1-(3,4-dichlorophenyl)-1-methylethyl]-1-(4-fluorophenyl)-1H-imidazol-2-yl}thio)methyl]phenyl}-1H-tetrazole] |
| 100 to 1000 nM | 100 to 1000 nM | CC(C)(c1ccc(S(N)(=O)=O)cc1)c1cnc(SCc2c(F)cccc2Cl)n1-c1ccc(F)cc1 [4-{1-[2-{[(2-chloro-6-fluorophenyl)methyl]thio}-1-(4-fluorophenyl)-1H-imidazol-5-yl]-1-methylethyl}benzenesulfonamide] |
| < 100 nM | < 100 nM | N-2-({[3-chloro-4-({[5-{1-[4-chloro-3- (methyloxy)phenyl]-1-methylethyl}-1-(4- fluorophenyl)-1H-imidazol-2-yl]thio}methyl)- 5-fluorophenyl]amino}carbonyl)-L-arginine |
| 100 to 1000 nM | 100 to 1000 nM | CC(C)(c1ccc(Cl)c(S(N)(=O)=O)c1)c1cnc(SCc2c(F)cc(C(=O)O)cc2Cl)n1-c1ccc(F)cc1 [4-({[5-{1-[3-(aminosulfonyl)-4-chlorophenyl]-1-methylethyl}-1-(4-fluorophenyl)-1H-imidazol-2-yl]thio}methyl)-3-chloro-5-fluorobenzoic acid] |
| < 100 nM | < 100 nM | COc1cc(C(C)(C)c2cnc(SCc3cc(S(N)(=O)=O)c(F)cc3Cl)n2-c2ccc(F)cc2)ccc1Cl [4-chloro-5-({[5-{1-[4-chloro-3-(methyloxy)phenyl]-1-methylethyl}-1-(4-fluorophenyl)-1H-imidazol-2-yl]thio}methyl)-2-fluorobenzenesulfonamide] |
| 100 to 1000 nM | 100 to 1000 nM | CC(C)(c1ccc(Cl)c(Cl)c1)c1cnc(SCc2ccc(C(=O)NCC(=O)O)cc2F)n1-c1ccc(F)cc1 [N-({4-[({5-[1-(3,4-dichlorophenyl)-1-methylethyl]-1-(4-fluorophenyl)-1H-imidazol-2-yl}thio)methyl]-3-fluorophenyl}carbonyl)glycine] |
| < 100 nM | < 100 nM | COc1cc(C(C)(C)c2cnc(SCc3ccc(F)c(-c4nnn[nH]4)c3)n2-c2ccc(F)cc2)ccc1Cl [5-[5-({[5-{1-[4-chloro-3-(methyloxy)phenyl]-1-methylethyl}-1-(4-fluorophenyl)-1H-imidazol-2-yl]thio}methyl)-2-fluorophenyl]-1H-tetrazole] |
| < 100 nM | < 100 nM | COc1ccc(C(C)(C)c2cnc(SCc3cc(F)ccc3Cl)n2-c2ccc(F)cc2)cc1OC [5-{1-[3,4-bis(methyloxy)phenyl]-1-methylethyl}-2-{[(2-chloro-5-fluorophenyl)methyl]thio}-1-(4-fluorophenyl)-1H-imidazole] |
| 100 to 1000 nM | 100 to 1000 nM | CC(C)NC(=O)NS(=O)(=O)c1ccc(CSc2ncc(C(C)(C)c3ccc(Cl)c(Cl)c3)n2-c2ccc(F)cc2)c(Cl)c1 [3-chloro-4-[({5-[1-(3,4-dichlorophenyl)-1-methylethyl]-1-(4-fluorophenyl)-1H-imidazol-2-yl}thio)methyl]-N-{[(1-methylethyl)amino]carbonyl}benzenesulfonamide] |
| 100 to 1000 nM | 100 to 1000 nM | COc1cc(C(C)(C)c2cnc(SCc3ccc(S(=O)(=O)NC(=O)NN4CCCC4)cc3Cl)n2-c2ccc(F)cc2F)ccc1Cl [3-chloro-4-({[5-{1-[4-chloro-3-(methyloxy)phenyl]-1-methylethyl}-1-(2,4-difluorophenyl)-1H-imidazol-2-yl]thio}methyl)-N-[(pyrrolidin-1-ylamino)carbonyl]benzenesulfonamide] |
| < 100 nM | 100 to 1000 nM | CC(C)(c1ccc(C(N)=O)c(Cl)c1)c1cnc(SCc2ccc(F)cc2Cl)n1-c1ccc(F)cc1 [2-chloro-4-{1-[2-{[(2-chloro-4-fluorophenyl)methyl]thio}-1-(4-fluorophenyl)-1H-imidazol-5-yl]-1-methylethyl}benzamide] |
| < 100 nM | < 100 nM | Cc1cc(-n2c(C(C)(C)c3ccc(Cl)c(Cl)c3)cnc2SCc2c(F)cc(C(=O)O)cc2F)ccc1F [4-[({5-[1-(3,4-dichlorophenyl)-1-methylethyl]-1-(4-fluoro-3-methylphenyl)-1H-imidazol-2-yl}thio)methyl]-3,5-difluorobenzoic acid] |
| 100 to 1000 nM | < 100 nM | COc1cc(C(C)(C)c2cnc(SCc3ccc(S(=O)(=O)NC(=O)NN4CCCC4)cc3Cl)n2-c2ccc(F)c(Cl)c2)ccc1Cl [3-chloro-4-({[1-(3-chloro-4-fluorophenyl)-5-{1-[4-chloro-3-(methyloxy)phenyl]-1-methylethyl}-1H-imidazol-2-yl]thio}methyl)-N-[(pyrrolidine-1-ylamino)carbonyl]benzenesulfonamide] |
| < 100 nM | < 100 nM | COc1cc(C(C)(C)c2cnc(SCc3c(F)cc(C(=O)N[C@@H](CCCNC(=N)N)C(=O)O)cc3Cl)n2-c2ccc(F)cc2)ccc1Cl [N-2-{[3-chloro-4-({[5-{1-[4-chloro-3-(methyloxy)phenyl]-1-methylethyl}-1-(4-fluorophenyl)-1H-imidazol-2-yl]thio}methyl)-5-fluorophenyl]carbonyl}-L-arginine] |
| < 100 nM | < 100 nM | CC(C)(c1ccc(S(N)(=O)=O)c(Cl)c1)c1cnc(SCc2c(F)cc(C(=O)O)cc2F)n1-c1ccc(F)c(F)c1 [4-({[5-{1-[4-(aminosulfonyl)-3-chlorophenyl]-1-methylethyl}-1-(3,4-difluorophenyl)-1H-imidazol-2-yl]thio}methyl)-3,5-difluorobenzoic acid] |
| < 100 nM | 100 to 1000 nM | COc1cc(C(C)(C)c2cnc(SCc3ccc(S(=O)(=O)NC(=O)NN4CCOCC4)cc3Cl)n2-c2ccc(F)cc2)ccc1Cl [3-chloro-4-({[5-{1-[4-chloro-3-(methyloxy)phenyl]-1-methylethyl}-1-(4-fluorophenyl)-1H-imidazol-2-yl]thio}methyl)-N-[(morpholin-4-ylamino)carbonyl]benzenesulfonamide] |
| < 100 nM | < 100 nM | COc1cc(C(C)(C)c2cnc(SCc3c(F)cc(OCCNC(=N)N)cc3F)n2-c2ccc(F)cc2)ccc1Cl [1-(2-{[4-({[5-{1-[4-chloro-3-(methyloxy)phenyl]-1-methylethyl}-1-(4-fluorophenyl)-1H-imidazol-2-yl]thio}methyl)-3,5-difluorophenyl]oxy}ethyl)guanidine] |
| < 100 nM | < 100 nM | COc1ccc(C(C)(C)c2cnc(SCc3ccc(F)c(S(N)(=O)=O)c3)n2-c2ccc(F)cc2)cc1OC [5-({[5-{1-[3,4-bis(methyloxy)phenyl]-1-methylethyl}-1-(4-fluorophenyl)-1H-imidazol-2-yl]thio}methyl)-2-fluorobenzenesulfonamide] |
